One test addresses T1, Human plasma kallikrein (Homo sapiens, UniProt P03952).
T1 construct: yields a heavy chain (371 amino acids) and a light chain (248 amino acids); purchased Enzyme Research Laboratories
The experiment in a line: Plasma Kallikrein Assay. The format is biochemical. Particulars: purified Human plasma kallikrein 0.5 nM, substrate Acetyl-K-P-R-AFC, pH 7.4.

Another test concerns the target human factor XIa (Homo sapiens, UniProt P03951). The experiment in a line: Factor XIa Assay. The format is biochemical. Particulars: human factor XIa 0.04 nM, substrate GPR-AFC, 30 min pre-incubation at 25° C., pH 7.4; read-out: FXIa IC50.

The structures appear in SMILES notation.

Chain of human factor XIa (P03951 388-625 limits assumed): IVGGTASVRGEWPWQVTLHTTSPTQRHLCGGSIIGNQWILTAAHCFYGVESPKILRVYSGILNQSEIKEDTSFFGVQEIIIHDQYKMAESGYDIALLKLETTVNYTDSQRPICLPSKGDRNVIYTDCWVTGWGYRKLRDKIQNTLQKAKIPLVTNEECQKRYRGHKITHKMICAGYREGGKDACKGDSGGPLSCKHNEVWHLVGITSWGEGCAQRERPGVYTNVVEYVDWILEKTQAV
Chain of human factor XIa (P03951 19-387 partner limits assumed): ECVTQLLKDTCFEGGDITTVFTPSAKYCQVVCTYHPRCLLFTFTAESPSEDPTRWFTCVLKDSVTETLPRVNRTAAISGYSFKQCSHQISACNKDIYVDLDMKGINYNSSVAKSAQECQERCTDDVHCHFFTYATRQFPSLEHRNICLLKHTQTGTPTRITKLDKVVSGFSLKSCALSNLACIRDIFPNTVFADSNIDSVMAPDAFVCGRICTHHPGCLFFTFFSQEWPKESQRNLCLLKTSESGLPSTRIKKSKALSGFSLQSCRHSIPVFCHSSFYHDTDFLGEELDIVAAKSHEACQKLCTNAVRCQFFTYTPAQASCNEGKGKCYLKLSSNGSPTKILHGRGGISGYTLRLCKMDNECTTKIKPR
T1 sequence (P03952 391-638 limits assumed): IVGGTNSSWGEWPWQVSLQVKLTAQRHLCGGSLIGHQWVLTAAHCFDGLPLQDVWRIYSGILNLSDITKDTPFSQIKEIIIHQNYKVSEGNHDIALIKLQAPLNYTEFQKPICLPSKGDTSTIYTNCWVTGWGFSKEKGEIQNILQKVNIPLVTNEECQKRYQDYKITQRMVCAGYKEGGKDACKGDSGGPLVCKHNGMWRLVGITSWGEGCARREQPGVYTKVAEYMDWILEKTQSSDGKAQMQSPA
T1 sequence (P03952 20-390 partner limits assumed): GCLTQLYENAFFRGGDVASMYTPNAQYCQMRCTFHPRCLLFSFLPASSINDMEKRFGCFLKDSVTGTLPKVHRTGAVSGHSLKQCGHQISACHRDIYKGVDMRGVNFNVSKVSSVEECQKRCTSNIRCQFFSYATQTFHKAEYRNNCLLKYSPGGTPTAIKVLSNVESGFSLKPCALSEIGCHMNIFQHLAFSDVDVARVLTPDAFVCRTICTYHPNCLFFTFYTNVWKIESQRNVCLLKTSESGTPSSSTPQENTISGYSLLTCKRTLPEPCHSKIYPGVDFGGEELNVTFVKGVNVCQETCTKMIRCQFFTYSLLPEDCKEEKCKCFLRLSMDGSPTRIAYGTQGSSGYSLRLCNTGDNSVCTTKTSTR

A word on the IC50: it is the midpoint of a concentration-inhibition curve. Consider `O=C(Nc1cnn(Cc2cnc(N3CCCC3CCO)nc2)c1)c1cncc(-c2c(C(F)F)ccc(Cl)c2F)n1` (single isomer, unassigned) [Example 102, (S or R)-6-(3-Chloro-6-(difluoromethyl)-2-fluorophenyl)-N-(1-((2-(2-(2-hydroxyethyl)pyrrolidin-1-yl)pyrimidin-5-yl)methyl)-1H-pyrazol-4-yl)pyrazine-2-carboxamide], for which the IC50 is 31.2 nM at Human plasma kallikrein and 2250 nM on human factor XIa.
With `O=C(Nc1cnn(Cc2cnc(N3CCCC3CCO)nc2)c1)c1cncc(-c2c(C(F)F)ccc(Cl)c2F)n1` (single isomer, unassigned) [Example 105, (S or R)-6-(3-Chloro-6-(difluoromethyl)-2-fluorophenyl)-N-(1-((2-(2-(2-hydroxyethyl)pyrrolidin-1-yl)pyrimidin-5-yl)methyl)-1H-pyrazol-4-yl)pyrazine-2-carboxamide], the results for the IC50 at Human plasma kallikrein and on human factor XIa were 36.8 nM and 3380 nM, respectively.
Taken in the same sequence, the figures for `O=C(Nc1cnn(C2CCc3cc(N4CCC4)ncc32)c1)c1cncc(-c2c(C(F)F)ccc(Cl)c2F)n1` (single isomer, unassigned) [Example 119, (R or S)-N-(1-(3-(Azetidin-1-yl)-6,7-dihydro-5H-cyclopenta[c]pyridin-7-yl)-1H-pyrazol-4-yl)-6-(3-chloro-6-(difluoromethyl)-2-fluorophenyl)pyrazine-2-carboxamide] were 14.5 nM and 3580 nM.
As to `C[C@H](O)c1ncc(-c2c(C(F)F)ccc(Cl)c2F)nc1C(=O)Nc1cnn(Cc2cnc(N3CCC3)nc2)c1` (single isomer, unassigned) [Example 134], the IC50 on Human plasma kallikrein was 9.4 nM; on human factor XIa, 852 nM.
As for `C[C@@H](O)c1ncc(-c2c(C(F)F)ccc(Cl)c2F)nc1C(=O)Nc1cnn(Cc2cnc(N3CCC3)nc2)c1` (single isomer, unassigned) [Example 135], the IC50 stood at 2.8 nM at Human plasma kallikrein and 120 nM at human factor XIa.
As for `CN(CC1CCCN1c1ncc(Cn2cc(NC(=O)c3cncc(-c4c(C(F)F)ccc(Cl)c4F)n3)cn2)cn1)CC1(O)CC1` (single isomer, unassigned) [Example 140, (S or R)-6-(3-Chloro-6-(difluoromethyl)-2-fluorophenyl)-N-(1-((2-(2-((((1-hydroxycyclopropyl)methyl)(methyl)amino)methyl)pyrrolidin-1-yl)pyrimidin-5-yl)methyl)-1H-pyrazol-4-yl)pyrazine-2-carboxamide], the values for the IC50 at Human plasma kallikrein and on human factor XIa were 0.2 nM and 1290 nM, respectively.
The corresponding values for `CN(CC1CCCN1c1ncc(Cn2cc(NC(=O)c3cncc(-c4c(C(F)F)ccc(Cl)c4F)n3)cn2)cn1)CC1(O)CC1` (single isomer, unassigned) [Example 141, (R or S)-6-(3-Chloro-6-(difluoromethyl)-2-fluorophenyl)-N-(1-((2-(2-((((1-hydroxycyclopropyl)methyl)(methyl)amino)methyl)pyrrolidin-1-yl)pyrimidin-5-yl)methyl)-1H-pyrazol-4-yl)pyrazine-2-carboxamide] are 0.3 nM and 4730 nM.
Consider `CC(c1cnc(N2C[C@H]3C[C@H]3C2C(=O)N(C)C)nc1)n1cc(NC(=O)c2cncc(-c3c(C(F)F)ccc(Cl)c3F)n2)cn1` (single isomer, unassigned) [Example 200, (1R,2S,5S or 1S,2R,5R)-3-(5-((R or S)-1-(4-(6-(3-Chloro-6-(difluoromethyl)-2-fluorophenyl)pyrazine-2-carboxamido)-1H-pyrazol-1-yl)ethyl)pyrimidin-2-yl)-N,N-dimethyl-3-azabicyclo[3.1.0]hexane-2-carboxamide], for which the IC50 against Human plasma kallikrein was 2.4 nM; at human factor XIa, 1120 nM.
Taken in the same sequence, the figures for `CC(c1cnc(N2C[C@H]3C[C@H]3C2C(=O)N(C)C)nc1)n1cc(NC(=O)c2cncc(-c3c(C(F)F)ccc(Cl)c3F)n2)cn1` (single isomer, unassigned) [Example 202, (1R,2S,5S or 1S,2R,5R)-3-(5-((R or S)-1-(4-(6-(3-Chloro-6-(difluoromethyl)-2-fluorophenyl)pyrazine-2-carboxamido)-1H-pyrazol-1-yl)ethyl)pyrimidin-2-yl)-N,N-dimethyl-3-azabicyclo[3.1.0]hexane-2-carboxamide] were 1 nM and 2260 nM.
The corresponding values for `COc1ncc(-c2c(C(F)F)ccc(Cl)c2F)nc1C(=O)Nc1cnn(Cc2cnc(N3CCC3)nc2)c1` [Example 1, N-(1-((2-(Azetidin-1-yl)pyrimidin-5-yl)methyl)-1H-pyrazol-4-yl)-6-(3-chloro-6-(difluoromethyl)-2-fluorophenyl)-3-methoxypyrazine-2-carboxamide] are 10.2 nM and 921 nM.
The corresponding values for `O=C(Nc1cnn(Cc2cnc(N3CCC3)nc2CO)c1)c1cncc(-c2c(C(F)F)ccc(Cl)c2F)n1` [Example 2, N-(1-((2-(Azetidin-1-yl)-4-(hydroxymethyl)pyrimidin-5-yl)methyl)-1H-pyrazol-4-yl)-6-(3-chloro-6-(difluoromethyl)-2-fluorophenyl)pyrazine-2-carboxamide] are 15.8 nM and 1110 nM.
In the case of `C[C@@H](c1cnc(N2CCC2)nc1)n1cc(NC(=O)c2cncc(-c3c(C(F)F)ccc(Cl)c3F)n2)cn1` [Example 5, (S)-N-(1-(1-(2-(Azetidin-1-yl)pyrimidin-5-yl)ethyl)-1H-pyrazol-4-yl)-6-(3-chloro-6-(difluoromethyl)-2-fluorophenvl)pyrazine-2-carboxamide], the IC50 against Human plasma kallikrein came to 6.6 nM; on human factor XIa it was 1350 nM.
The corresponding values for `Cc1nc(N2CCC2)ncc1Cn1cc(NC(=O)c2cncc(-c3c(C(F)F)ccc(Cl)c3F)n2)cn1` [Example 8, N-(1-((2-(Azetidin-1-yl)-4-methylpyrimidin-5-yl)methyl)-1H-pyrazol-4-yl)-6-(3-chloro-6-(difluoromethyl)-2-fluorophenyl)pyrazine-2-carboxamide] are 4.2 nM and 458 nM.
As to `Cc1nc(N2CCC2)ccc1Cn1cc(NC(=O)c2cncc(-c3c(C(F)F)ccc(Cl)c3F)n2)cn1` [Example 9, N-(1-((6-(Azetidin-1-yl)-2-methylpyridin-3-yl)methyl)-1H-pyrazol-4-yl)-6-(3-chloro-6-(difluoromethyl)-2-fluorophenyl)pyrazine-2-carboxamide], the concentration for half-maximal inhibition (IC50) against Human plasma kallikrein is 5.2 nM; on human factor XIa it was 5100 nM.
In the case of `Cc1nc(Cn2cc(NC(=O)c3cncc(-c4c(C(F)F)ccc(Cl)c4F)n3)cn2)cnc1N1CCC1` [Example 10, N-(1-((5-(Azetidin-1-yl)-6-methylpyrazin-2-yl)methyl)-1H-pyrazol-4-yl)-6-(3-chloro-6-(difluoromethyl)-2-fluorophenyl)pyrazine-2-carboxamide], the IC50 is 5.2 nM against Human plasma kallikrein and 647 nM at human factor XIa.
Consider `Cc1ncc(-c2c(C(F)F)ccc(Cl)c2F)nc1C(=O)Nc1cnn(Cc2cnc(N3CC(F)(F)C3)c(C)n2)c1` [Example 11, 6-(3-Chloro-6-(difluoromethyl)-2-fluorophenyl)-N-(1-((5-(3,3-difluoroazetidin-1-yl)-6-methylpyrazin-2-yl)methyl)-1H-pyrazol-4-yl)-3-methylpyrazine-2-carboxamide], for which the IC50 against Human plasma kallikrein came out at 6.2 nM; at human factor XIa it was 1710 nM.
With `O=C(Nc1cnn(Cc2cnc(N3CCC3)c(F)c2)c1)c1cncc(-c2c(C(F)F)ccc(Cl)c2F)n1` [Example 12, N-(1-((6-(Azetidin-1-yl)-5-fluoropyridin-3-yl)methyl)-1H-pyrazol-4-yl)-6-(3-chloro-6-(difluoromethyl)-2-fluorophenyl)pyrazine-2-carboxamide], the IC50 on Human plasma kallikrein came to 6.2 nM; at human factor XIa, 3510 nM.
For the molecule `O=C(Nc1cnn(Cc2cnc(N3CCC3)cn2)c1)c1cncc(-c2c(C(F)F)ccc(Cl)c2F)n1` [Example 13, N-(1-((5-(Azetidin-1-yl)pyrazin-2-yl)methyl)-1H-pyrazol-4-yl)-6-(3-chloro-6-(difluoromethyl)-2-fluorophenyl)pyrazine-2-carboxamide], the IC50 on Human plasma kallikrein was 7.2 nM; at human factor XIa it was 1840 nM.
As for `CCc1ncc(-c2c(C(F)F)ccc(Cl)c2F)nc1C(=O)Nc1cnn(Cc2cnc(N3CCC3)nc2)c1` [Example 14, N-(1-((2-(Azetidin-1-yl)pyrimidin-5-yl)methyl)-1H-pyrazol-4-yl)-6-(3-chloro-6-(difluoromethyl)-2-fluorophenyl)-3-ethylpyrazine-2-carboxamide], the IC50 at Human plasma kallikrein is 8 nM; at human factor XIa, 312 nM.
The corresponding values for `Cc1nc(Cn2cc(NC(=O)c3cncc(-c4c(C(F)F)ccc(Cl)c4F)n3)cn2)cnc1N1CC(F)(F)C1` [Example 15, 6-(3-Chloro-6-(difluoromethyl)-2-fluorophenyl)-N-(1-((5-(3,3-difluoroazetidin-1-yl)-6-methylpyrazin-2-yl)methyl)-1H-pyrazol-4-yl)pyrazine-2-carboxamide] are 8.1 nM and 3690 nM.
Turning to `N#Cc1cc(N2CCC2)ncc1Cn1cc(NC(=O)c2cncc(-c3c(C(F)F)ccc(Cl)c3F)n2)cn1` [Example 16, N-(1-((6-(Azetidin-1-yl)-4-cyanopyridin-3-yl)methyl)-1H-pyrazol-4-yl)-6-(3-chloro-6-(difluoromethyl)-2-fluorophenyl)pyrazine-2-carboxamide], the half-maximal inhibitory concentration (IC50) on Human plasma kallikrein worked out at 8.4 nM; at human factor XIa, 1050 nM.
As for `Cc1cc(N2CCC2)ncc1Cn1cc(NC(=O)c2cncc(-c3c(C(F)F)ccc(Cl)c3F)n2)cn1` [Example 17, N-(1-((6-(Azetidin-1-yl)-4-methylpyridin-3-yl)methyl)-1H-pyrazol-4-yl)-6-(3-chloro-6-(difluoromethyl)-2-fluorophenyl)pyrazine-2-carboxamide], the figures for the IC50 at Human plasma kallikrein and at human factor XIa were 10.2 nM and 1370 nM, respectively.
Taken in the same sequence, the figures for `O=C(Nc1cnn(Cc2ccc(N3CCC3)nc2)c1)c1cncc(-c2c(C(F)F)ccc(Cl)c2F)n1` [Example 18, N-(1-((6-(Azetidin-1-yl)pyridin-3-yl)methyl)-1H-pyrazol-4-yl)-6-(3-chloro-6-(difluoromethyl)-2-fluorophenyl)pyrazine-2-carboxamide] were 13.1 nM and 2000 nM.

The values above are taken from patent US20230416227A1, “PLASMA KALLIKREIN INHIBITORS” (Merck Sharp & Dohme LLC, priority 2020, published 2023).
